Measurements from patent US9096581B2, “Fluoroethyl thiamine or salts thereof and application thereof in preparation of anticoccidial drugs” (GUANGZHOU ORIGMOL FEED-ADDITIVE CO., LTD, priority 2012, dated 2015).
Entries after “also recorded” stand apart in the source; their conditions may differ. Where a name gives a salt, the structure may show the parent alone.

Tests used:
[1] = tested on: Eimeria necatrix GD strains; assay: Anticoccidial effect on Eimeria necatrix in chickens (Embodiment 7); type: in vivo; settings: 125 ppm in feed; for average weight gain / number of oocysts in feces: 7th day after infecting; for survival rate: chickens; for relative decrement rate of oocysts: vs infected non-drug control; for relative weight gain rate: vs non-infected non-drug control
Text: (§1) 1-day-old Lingnan yellow chickens, purchased from Poultry Research Unit, Bureau of Animal Husbandry, Guangdong Academy of Agricultural Sciences, bred under coccidium-free environment, and subjected to grouping and experiment after no coccidium oocyst is found in feces through microscopic examination when the chickens are 14 days old.
Eimeria necatrix GD strains, having no resistance to various anticoccidial drugs. Breeding and amplifying in chickens before the experiment, collecting fresh oocysts, sporulating, and preserving at 4° C. for later use.
(§2) Weighing the 14-day-old experiment chickens one by one, rejecting emaciated chickens or overweighted chickens, selecting healthy chickens of which the individual body weight difference is within 20 g, and dividing to 4 groups with 30 chickens in each group. Groups 1 and 2 are respectively a non-drug-applied and non-coccidium-killed control group and a coccidium-infected and non-drug-applied control group, and Groups 3 and 4 are added with fluoroethyl thiamine hydrochloride or amprolium according to Table 12. Feeding with feed containing different drugs on the day of experiment grouping, enabling the chickens to freely take in the feed, and feeding the chickens until the experiment ends.
Except the non-coccidium-infected and non-drug-applied control group, giving each experiment chicken in each experiment group with 1×10^5 eimeria necatrix sporulated oocysts via the crop on the next day of the grouping day. During experiment, observing and recording the spirit, appetite, bloody feces situation, death count and the like of the chickens every day. On the 7th day after infecting, respectively weighing each group, calculating the relative weight gain rate, simultaneously collecting feces samples, and counting the number of oocysts per gram of feces.
(§3) The anticoccidial effect evaluation is the same with Embodiment 5.

[2] = tested on: Eimeria maxima PY strains; assay: Anticoccidial effect on Eimeria maxima in chickens (Embodiment 6); type: in vivo; settings: 125 ppm in feed; for average weight gain / number of oocysts in feces: 7th day after infecting; for survival rate: chickens; for relative decrement rate of oocysts: vs infected non-drug control; for relative weight gain rate: vs non-infected non-drug control
Text: as §1
Eimeria maxima PY strains, having no resistance to various anticoccidial drugs. Breeding and amplifying in chickens before the experiment, collecting fresh oocysts, sporulating, and preserving at 4° C. for later use.
as §2, with “10.” for “12.”, “in” for “in the”
Except the non-coccidium-infected and non-drug-applied control group, giving each experiment chicken in each experiment group with 3×10^5 eimeria maxima sporulated oocysts via the crop on the next day of the grouping day. During experiment, observing and recording the spirit, appetite, bloody feces situation, death count and the like of the chickens every day. On the 7th day after infecting, respectively weighing each group, calculating the relative weight gain rate, simultaneously collecting feces samples, and counting the number of oocysts per gram of feces.
as §3

Compound | average weight gain [1] | number of oocysts in feces [1] | survival rate [1] | relative decrement rate of oocysts [1] | relative weight gain rate [1] | average weight gain [2] | number of oocysts in feces [2] | survival rate [2] | relative decrement rate of oocysts [2] | relative weight gain rate [2] | inhibition of eimeria necatrix, in words ([1]; hydrochloride) | inhibition of eimeria maxima, in words ([2]; hydrochloride)
CCCc1ncc(C[n+]2ccccc2C)c(N)n1 [amprolium, Amprolium, reference compound] | 159.9 g | 3600 g⁻¹ | 100% | 73.3% | 86.2% | 167.4 g | 8600 g⁻¹ | 100% | 79.5% | 93.1% |  | 
CCc1ncc(C[n+]2csc(CCF)c2C)c(N)n1 [fluoroethyl thiamine hydrochloride, 3-[(4-amino-2-ethyl-5-pyrimidyl)-methylene]-5-(2-fluoroethyl)-4-methyl thiazole chloride hydrochloride] | 172.5 g | 1900 g⁻¹ | 100% | 85.9% | 92.9% | 176.3 g | 3700 g⁻¹ | 100% | 91.2% | 98.0% | can effectively control infection of the eimeria necatrix; also recorded: superior to amprolium in eimeria necatrix inhibition | significant inhibition effect on eimeria maxima; also recorded: superior to amprolium in eimeria maxima inhibition
